# Experimental data reported in ChEMBL document CHEMBL3588855, “Different structures of the two peroxisome proliferator-activated receptor gamma (PPARγ) ligand-binding domains in homodimeric complex with partial agonist, but not full agonist” (Bioorg Med Chem Lett, 2015).
# Assays:
# [1] = target: T1, Peroxisome proliferator-activated receptor gamma (Homo sapiens) (UniProt P37231); assay: Agonist activity at human GAL4-tagged-PPARgamma transfected in monkey COS1 cells by transient transfection/luciferase reporter gene assay relative to 10 uM rosiglitazone; type: cell-based; conditions: COS-1
# T1 sequence (whole entry): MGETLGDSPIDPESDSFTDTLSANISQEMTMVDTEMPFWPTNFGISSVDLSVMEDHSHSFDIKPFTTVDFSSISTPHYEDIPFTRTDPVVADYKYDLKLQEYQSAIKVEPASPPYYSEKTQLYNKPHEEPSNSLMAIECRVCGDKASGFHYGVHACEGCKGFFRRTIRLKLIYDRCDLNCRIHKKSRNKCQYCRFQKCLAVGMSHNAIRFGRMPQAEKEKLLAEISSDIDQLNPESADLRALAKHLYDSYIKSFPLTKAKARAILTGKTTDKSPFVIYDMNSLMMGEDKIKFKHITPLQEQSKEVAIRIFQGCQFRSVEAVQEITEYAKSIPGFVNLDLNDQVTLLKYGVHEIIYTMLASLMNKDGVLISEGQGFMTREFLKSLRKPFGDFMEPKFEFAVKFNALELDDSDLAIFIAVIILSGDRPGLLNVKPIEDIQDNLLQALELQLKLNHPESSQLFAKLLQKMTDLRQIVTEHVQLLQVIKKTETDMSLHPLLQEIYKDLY
# [2] = target: T1, Peroxisome proliferator-activated receptor gamma (Homo sapiens); assay: Agonist activity at human GAL4-tagged-PPARgamma transfected in monkey COS1 cells by transient transfection/luciferase reporter gene assay relative to 30 uM pioglitazone; type: cell-based; conditions: COS-1
compound,measurement,setting,value
CCCOc1ccc(C(=O)NS(=O)(=O)c2ccccc2)cc1CNC(=O)c1ccc(-c2ncccn2)cc1,%max,[1],50%
same,%max,[2],50%
